# Read-outs that look alike come from different tables or passages of the source.
# Key:
# Xa = details: cited from earlier work
# [1] = In vivo rat model: plasma anti Xa after buccal dosing of gel; parameters: species or system rat (Wistar preferred); details: Gel Formulation 11
# Method: The in vivo delivery of heparinic anticoagulant from a gel is determined using a rat model.
# This method uses rats of 220 to 500 grams in weight. Wistar rats are the preferred strain. The rats are anesthetized with ether and then a 2 cm vertical incision is made first through the skin and then through the underlying muscle. The esophagus is isolated and tied off with a surgical ligature. The incision is closed with a surgical stapler. After surgery the rats are dosed with the gel by syringe administration with half of the total dose in each cheek. The rats are slightly reanesthesized for dosing and blood withdrawal. Blood samples are withdrawn at 0, 1, 2, 3 and 4 hours post dose. Heparinic anticoagulant concentrations in plasma are determined by an enzymatic method measuring anti Xa using a test kit (Stachrom™ Heparin from Diagnostica Stago, 9 rue des Freres Chausson, 92600 Asnieres-sur Seine, France). Results are reported as the number of anti Xa units per mL of plasma.
# A formulation was prepared according to the method set forth above in connection with Gel Formulation 1, except that the sodium dodecyl sulfate was eliminated and the penetration enhancers shown in Table 15 below were incorporated at 2, 5 and/or 10 percent by weight based on the total weight of the gel formulation. Low molecular weight heparin (mean molecular weight from 3450 to 4950 daltons with anti Xa of 65 to 144 units/mg, Bioiberica, Barcelona, Spain) was incorporated at concentrations of 10, 25 and 50 mg of heparin per mL of gel. In vivo delivery was determined using the rat model described above. Each rat was dosed with 0.2 mL of gel formulation to provide the dose of heparin shown in Table 15, wherein "n" designates the number of rats studied. The values obtained were used to calculate the promoting effect (P for each formulation. The promoting effect was calculated using the equation given below: [formula] where: Cmax (H) is equal to the maximal anti Xa activity in plasma after heparin administration without enhancer and Cmax (H+E) is equal to the maximal anti Xa activity in plasma after heparin administration with the enhancer. The results are shown in Table 15 below.
# [2] = enhancer 5 wt%, heparin 5 mg/rat
compound,measurement,setting,value
Low molecular weight heparin,anti Xa,"Xa; mean molecular weight 3450 daltons, Bioiberica",138 units/mg
same,anti Xa,"Xa; mean molecular weight 5300 daltons, Bioiberica",144 units/mg
same,anti Xa,"Xa; molecular weight 3949, Bioiberica",113 units/mg
C[C@H](CCC(=O)NCCC[N+](C)(C)CCCS(=O)(=O)[O-])[C@H]1CC[C@H]2[C@@H]3[C@H](O)C[C@@H]4C[C@H](O)CC[C@]4(C)[C@H]3C[C@H](O)[C@]12C [CHAPS],promoting effect (P %),[1]; [2],+2%
CCCCCCCCCCCCCCCC(=O)OC(CC(=O)O)C[N+](C)(C)C (racemic) [Palmitoyl DL carnitine chloride],promoting effect (P %),"[1]; enhancer 10 wt%, heparin 10 mg/rat",+142%
C[C@H](CCC(=O)O)[C@H]1CC[C@H]2[C@@H]3CC[C@@H]4C[C@H](O)CC[C@]4(C)[C@H]3C[C@H](O)[C@]12C [Sodium deoxycholate],promoting effect (P %),"[1]; enhancer 2 wt%, heparin 5 mg/rat",+117%
same,promoting effect (P %),[1]; [2],+122%
CCCCCCCCCCCCOS(=O)(=O)[O-].[Na+] [Sodium dodecyl sulfate],promoting effect (P %),[1]; [2],+189%
O=C1CCCN1 [Pyrrolidone],promoting effect (P %),[1]; [2],-31%

# From US5639469A, “Transmucosal delivery system” (Minnesota Mining and Manufacturing Company, priority 1994, dated 1997)
